Data set [1] concerns the target T1, human β1-adrenergic receptor (Homo sapiens, UniProt P08588).
T1 construct: expressed in transfected cells; host or cells: CHO (Chinese hamster ovary) cells, pcDNA3
In words: Test Case 2-B: human β1-adrenergic receptor agonist activity. The format is cell-based. To be noted: for Emax: read-out: β1 receptor I.A. The procedure:
(§1) Measurement of Human β1-Adrenergic Receptor Agonist Activity
The human β1-adrenergic receptor agonist activity is measured by the same method as in Test Case 1-B using CHO (Chinese hamster ovary) cells transfected by a human β1 gene inserted in pcDNA3 (Invitrogen).

The target of data set [2] is T2, human β2-adrenergic receptor (Homo sapiens, UniProt P07550).
T2 construct: expressed in transfected cells; host or cells: CHO (Chinese hamster ovary) cells, pcDNA3
Put plainly: Test Case 3-B: human β2-adrenergic receptor agonist activity. The format is cell-based. To be noted: for Emax: read-out: β2 receptor I.A. The procedure:
(§2) Measurement of Human β2-Adrenergic Receptor Agonist Activity
The human β2-adrenergic receptor agonist activity is measured by the same method as in Test Case 1-B using CHO (Chinese hamster ovary) cells transfected by a human β2 gene inserted in pcDNA3 (Invitrogen).

Data set [3] concerns the target T3, human α1A-adrenergic receptor (Homo sapiens, UniProt P35348).
T3 sequence (P35348 1-466): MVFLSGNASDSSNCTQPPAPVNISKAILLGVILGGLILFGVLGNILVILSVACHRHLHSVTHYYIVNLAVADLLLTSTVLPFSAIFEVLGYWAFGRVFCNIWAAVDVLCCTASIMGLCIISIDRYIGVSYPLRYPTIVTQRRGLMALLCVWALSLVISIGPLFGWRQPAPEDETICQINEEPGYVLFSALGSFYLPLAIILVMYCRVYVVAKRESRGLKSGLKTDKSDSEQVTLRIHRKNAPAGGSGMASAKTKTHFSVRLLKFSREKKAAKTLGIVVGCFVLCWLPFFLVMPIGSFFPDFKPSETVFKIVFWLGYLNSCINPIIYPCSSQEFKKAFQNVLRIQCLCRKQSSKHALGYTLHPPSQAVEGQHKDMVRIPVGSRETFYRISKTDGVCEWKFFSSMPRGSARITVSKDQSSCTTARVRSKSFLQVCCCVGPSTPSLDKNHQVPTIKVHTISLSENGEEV
In words: Test Case 4-A: human α1A-adrenergic receptor agonist activity (HEK293, Ca flux, Fura-2). The format is cell-based. Details: expressed in transfected cells; host or cells: HEK293 cells, pcDNA3.1. To be noted: for Emax: HEK293, read-out: α1A receptor I.A. The essentials: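 Fura-2AM-loaded HEK293 cells transfected with human α1A were preincubated for 180 s. Compound (sample plate 10^−5 to 10^−12 M) was added after ~30 s of 340/380 nm excitation ratio reading (500 nm emission, 2-s intervals), followed by 270 s more reading. Ca flux is the peak height: maximum ratio after addition minus the pre-addition ratio.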

In data set [4] the test system is pentobarbital-anesthetized rats. In words: Test Case 9: effects on the blood pressure and heart rate in pentobarbital-anesthetized rats. The format is in vivo, rat. To be noted: anesthetized male SD rats, 3 mg/kg intravenous over 30 seconds, maximum change, mean±standard deviation. The procedure: Effects on the blood pressure and heart rate in pentobarbital-anesthetized rats
The blood pressure and heart rate of rats under pentobarbital anesthesia are measured, and the effects of rapid intravenous administration of the test compound on the blood pressure and heart rate can be studied. After anesthetizing male SD rats (Japan SLC) by intraperitoneal administration of 50 mg/kg of pentobarbital sodium (Tokyo Chemical Industry Co., Ltd.), 25 mg/kg of pentobarbital sodium is administered subcutaneously as maintenance anesthesia. The left femoral vein is exposed and stripped, and a SP10 polyethylene tube filled with saline (connected to a three-way stopcock via a ¼ venous needle) is inserted and left in place in the vein.
The inside of the left thigh is cut, and the femoral artery is exposed and stripped. A polyethylene tube filled with heparinized physiological saline solution (SP31, connected to a three-way stopcock via a Terumo injection needle 22G) is inserted and connected to a pressure transducer. The blood pressure is measured from the pressure transducer via a strain pressure amplifier (AP-641G, Nihon Kohden). The heart rate is measured with the pulse wave of the blood pressure as a trigger via a heart rate counter (AT-601G, Nihon Kohden). The blood pressure, mean blood pressure, and heart rate are output to a recorder and recorded. Furthermore, the mean blood pressure is recorded via the strain pressure amplifier (AP-641G) using the formula {[…]}.
Specifically, 3 mg/mL of test compound is administered rapidly at a volume of 1 mL/kg. The relative value (%) of the values at each point in time versus the mean blood pressure and heart rate before beginning administration are determined for each individual, and the mean±standard deviation of the relative value (%) at the time of the maximum change in each parameter is determined.

The target in data set [5] is T4, human β3-adrenergic receptor (Homo sapiens, UniProt P13945).
T4 construct: A full-length human β3 gene is obtained from a human genomic library (made by Clontech) using this as the probe; expressed in transfected cells; host or cells: CHO (Chinese hamster ovary) cells, pcDNA3
Put plainly: Test Case 1-B: human β3-adrenergic receptor agonist activity (cAMP-Screen, 96-well). The format is cell-based. To be noted: for Emax: 0.5 h, read-out: β3 receptor I.A.; for EC50: CHO cells, cAMP. The essentials: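 CHO cells stably transfected with full-length human β3 gene, serum-starved 15 min, then exposed to serially diluted compound in Ham's F-12 with 100 mmol/L HEPES and 1 mmol/L IBMX (diluent concentrations) for 30 min. Cells lysed 30 min at 37 °C; cAMP quantified by cAMP-Screen immunoassay.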

In a further data set the test system is Male C57BL/6 Cr mice. In words: Test Case 10: mouse piloerection test. The format is in vivo. To be noted: 10 mg/kg i.v. How it is done: Male C57BL/6 Cr mice (Japan SLC) are used. The dissolved compound is administered rapidly via a caudal vein. The animal is placed on the observation stand 5, 15, 30, and 60 minutes after administration, and the state of piloerection is observed. The state of piloerection is evaluated by the following 7-level scoring system according to the examples by the method of Irwin (Psychopharmacologia 1968, 13; 222-257).
Scoring system: “Score 0”: No piloerection at all; “Score 1”: Slight piloerection (piloerection on part of the body such as the back or neck); “Score 2”: Moderate piloerection (piloerection over the entire body); “Score 3”: Marked piloerection (piloerection over the entire body, conspicuous to the extent that the skin can be seen).
“Score 0.5” is between “Score 0” and “Score 1” “Score 1.5” is between […]. “Score 2.5” is between “Score 2” and “Score 3.”

The target of data set [6] is T1, human β1-adrenergic receptor. Put plainly: Test Case 2-C: human β1-adrenergic receptor agonist activity (Cerep cellular functional GPCR, beta 1). Conditions: concentration 10 μM, isoproterenol = 100%. The format is cell-based.
Excerpt: as §1

For data set [7], the target named is T2, human β2-adrenergic receptor. In words: Test Case 3-C: human β2-adrenergic receptor agonist activity (Cerep cellular functional GPCR, beta 2). The format is cell-based. Conditions: concentration 10 μM, isoproterenol = 100%.
Excerpt: as §2

Data set [8] has as its target T3, human α1A-adrenergic receptor. In words: Test Case 4-B: human α1A-adrenergic receptor agonist activity (Cerep cellular functional GPCR, alpha 1A). The format is cell-based. Details: expressed in transfected cells. To be noted: concentration 10 μM; for α1 receptor % of Control Agonist Response, Control; Epinephrine: epinephrine = 100%; for α1 receptor % of Control Agonist Response, Control; Norepinephrine: norepinephrine = 100%. An excerpt:
Measurement of Human α1A-Adrenergic Receptor Agonist Activity
The human α1A-adrenergic receptor agonist activity] can be measured by […] Functional GPCR·Gs, alpha 1A (Ref. 722-36a) listed on p. 52 of the Cerep 2008 CATALOG IN VITRO PHARMACOLOGY & ADME-TOX.

Molecules are shown by their SMILES.

T4 sequence (P13945 whole entry): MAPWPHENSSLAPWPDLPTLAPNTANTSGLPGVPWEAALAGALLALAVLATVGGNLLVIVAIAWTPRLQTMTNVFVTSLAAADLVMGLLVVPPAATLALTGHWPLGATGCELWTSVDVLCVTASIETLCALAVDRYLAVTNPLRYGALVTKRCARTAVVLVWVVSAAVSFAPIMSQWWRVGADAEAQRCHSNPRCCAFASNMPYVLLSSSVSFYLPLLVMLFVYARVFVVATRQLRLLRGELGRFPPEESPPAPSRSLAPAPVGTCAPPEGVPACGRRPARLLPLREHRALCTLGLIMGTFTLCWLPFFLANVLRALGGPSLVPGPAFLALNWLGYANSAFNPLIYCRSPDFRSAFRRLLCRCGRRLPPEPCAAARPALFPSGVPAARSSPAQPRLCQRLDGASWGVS
T2 sequence (P07550 whole entry): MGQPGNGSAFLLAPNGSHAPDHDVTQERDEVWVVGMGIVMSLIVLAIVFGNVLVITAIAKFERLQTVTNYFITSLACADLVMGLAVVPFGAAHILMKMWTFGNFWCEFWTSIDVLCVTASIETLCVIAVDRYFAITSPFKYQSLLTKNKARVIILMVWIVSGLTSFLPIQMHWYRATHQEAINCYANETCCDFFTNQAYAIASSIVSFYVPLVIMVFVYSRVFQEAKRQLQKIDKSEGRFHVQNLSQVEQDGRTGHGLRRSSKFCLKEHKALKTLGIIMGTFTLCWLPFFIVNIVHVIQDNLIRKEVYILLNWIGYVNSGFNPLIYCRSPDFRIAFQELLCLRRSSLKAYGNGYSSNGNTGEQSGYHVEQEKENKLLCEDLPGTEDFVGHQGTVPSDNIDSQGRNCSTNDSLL
T1 sequence (P08588 whole entry): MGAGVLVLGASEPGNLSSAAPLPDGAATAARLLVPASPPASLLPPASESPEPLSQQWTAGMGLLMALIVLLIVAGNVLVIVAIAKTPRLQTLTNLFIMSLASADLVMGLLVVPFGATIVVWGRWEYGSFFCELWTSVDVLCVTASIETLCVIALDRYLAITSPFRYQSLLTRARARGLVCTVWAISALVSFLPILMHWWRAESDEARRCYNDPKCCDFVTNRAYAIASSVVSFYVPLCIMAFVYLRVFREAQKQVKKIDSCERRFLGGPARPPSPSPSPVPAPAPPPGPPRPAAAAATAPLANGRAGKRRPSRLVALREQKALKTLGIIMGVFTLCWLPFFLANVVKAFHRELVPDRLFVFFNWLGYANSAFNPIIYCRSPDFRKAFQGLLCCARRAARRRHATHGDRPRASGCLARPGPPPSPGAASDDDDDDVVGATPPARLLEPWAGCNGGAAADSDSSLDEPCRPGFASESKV

Broadly, the EC50 is the concentration needed to bring the measured effect to its halfway point. A high value points to weaker potency. `COc1n[nH]c2cc(OCCNC[C@H](O)c3cccc(NS(=O)(=O)c4cccs4)c3)ccc12` [ex2, (R)—N-(3-(1-hydroxy-2-(2-(3-methoxyindazol-6-yloxy)ethylamino)ethyl)phenyl)thiophene-2-sulfonamide]: the Emax was found to be 6% in [1], 3% in [2], 0% in data set [3] and 109% in data set [5]. Moreover, in [4] (3 mg/kg), the “increase in MBP (%)” value was 4.9 ± 0.9%. Besides, the concentration giving a half-maximal response (EC50) in data set [5] (Test Case 1-B) came to 3.5 nM.
As to `COc1n[nH]c2cc(OCCNC[C@H](O)c3cccc(NS(=O)(=O)c4ccccc4F)c3)ccc12` [ex5, (R)-2-fluoro-N-(3-(1-hydroxy-2-(2-(3-methoxyindazol-6-yloxy)ethylamino)ethyl)phenyl)benzenesulfonamide], the Emax in data set [1] came out at 5%; in data set [2], 0%; in [3] it was 0%; in data set [5], 90%. Also, the “number of experimental animals matching Score 0 (no piloerection)” value with Male C57BL/6 Cr mice (n=4, observation time 5 min) was determined as 2; with Male C57BL/6 Cr mice (n=4, observation time 15 min), 2; with Male C57BL/6 Cr mice (n=4, observation time 30 min), 2; in the data set with Male C57BL/6 Cr mice (n=4, observation time 60 min), 2. For the same compound, the “number of experimental animals matching Score 0.5” value in the data set with Male C57BL/6 Cr mice (n=4, observation time 5 min) is reported as 2; in the data set with Male C57BL/6 Cr mice (n=4, observation time 15 min) it was 2; in the data set with Male C57BL/6 Cr mice (n=4, observation time 30 min) it was 2; in the data set on Male C57BL/6 Cr mice (n=4, observation time 60 min), 2. Besides, the “increase in MBP (%)” value in [4] was 5.1 ± 2.4%. In [5] (Test Case 1-B), this compound had a concentration giving a half-maximal response (EC50) of 90 nM.
On to `COc1n[nH]c2cc(OCCNC[C@H](O)c3cccc(NS(=O)(=O)c4ccsc4)c3)ccc12` [ex11, (R)-N-(3-(1-hydroxy-2-(2-(3-methoxyindazol-6-yloxy)ethylamino)ethyl)phenyl) thiophene-3-sulfonamide], for which the Emax in [1] was 3%; in [2], 3%; in [3], 0%; in [5], 115%. The “increase in MBP (%)” value in data set [4] (3 mg/kg) was found to be 6.1 ± 3.7%. The same compound showed an EC50 in data set [5] (Test Case 1-B) of 3.2 nM.
In the case of `COc1n[nH]c2cc(OCCNC[C@H](O)c3cccc(NS(=O)(=O)c4cccc(N)c4)c3)ccc12` [ex41, (R)-3-amino-N-(3-(1-hydroxy-2-(2-(3-methoxyindazol-6-yloxy)ethylamino)ethyl)phenyl) benzenesulfonamide], the “β1 receptor I.A.” value in data set [1] (Test Case 2-B, maximum response of isoproterenol = 100%) came out at 12%. For the same compound, the “β2 receptor I.A.” value in [2] (Test Case 3-B, maximum response of isoproterenol = 100%) was 5%. Besides, in [3] (Test Case 4-A, maximum response of norepinephrine = 100%, Table 4), the “α1A receptor I.A.” value amounted to 0%. In addition, the “increase in MBP (%)” value in [4] was 5.7 ± 0.8%. In addition, the EC50 in data set [5] (Test Case 1-B) was 0.21 nM. Moreover, the “β3 receptor I.A.” value in [5] (Test Case 1-B, maximum response of isoproterenol = 100%) amounted to 76%.
On to `Cc1n[nH]c2cc(OCCNC[C@H](O)c3cccc(NS(=O)(=O)c4cn[nH]c4)c3)ccc12` [ex82, (R)-N-(3-(1-hydroxy-2-(2-(3-methylindazol-6-yloxy)ethylamino)ethyl)phenyl)py-razole-4-sulfonamide], for which the Emax came out at 7% in data set [1], 2% in [2], 13% in data set [3] and 71% in data set [5]. Moreover, in [4], the “increase in MBP (%)” value is reported as 5.7 ± 0.8%. In data set [5] (Test Case 1-B), this compound displayed an EC50 of 16 nM.
Turning to `O=S(=O)(Nc1cccc([C@@H](O)CNCCOc2ccc3c(OC(F)F)n[nH]c3c2)c1)c1ccccc1F` [ex107, (R)-N-(3-(2-(2-(3-(difluoromethoxy)-indazol-6-yloxy)ethylamino)-1-hydroxyethyl)phenyl)-2-fluorobenzene-sulfonamide], in data set [6], the “β1 receptor % of Control Agonist Response” value turned out to be 8.7%. Further, the “β2 receptor % of Control Agonist Response” value in [7] is −0.6%. In data set [8], the “α1 receptor % of Control Agonist Response, Control; Epinephrine” value is given as 17% and the “α1 receptor % of Control Agonist Response, Control; Norepinephrine” value was determined as 14%. Besides, in [3], the Emax was 1%. For the same compound, in [5], the Emax was determined as 75%. In addition, the EC50 in [5] (Test Case 1-B) worked out at 101 nM.
Regarding `O=S(=O)(Nc1cccc([C@@H](O)CNCCOc2ccc3c(Cl)n[nH]c3c2)c1)c1ccccc1F` [ex158, (R)-N-(3-(2-(2-(3-chloroindazol-6-yloxy)ethylamino)-1-hydroxyethyl)phenyl)-2-fluorobenzene-sulfonamide], in [6], the “β1 receptor % of Control Agonist Response” value is 17%. Besides, the “β2 receptor % of Control Agonist Response” value in data set [7] came to 1.6%. For the same compound, the “α1 receptor % of Control Agonist Response, Control; Epinephrine” value in data set [8] stood at 7.8%. The “α1 receptor % of Control Agonist Response, Control; Norepinephrine” value in data set [8] turned out to be 6.7%. The Emax in data set [3] was found to be 0%; in data set [5], 90%. Also, it took 62 nM to reach a half-maximal effect in [5] (Test Case 1-B) (EC50).

The values are drawn from patent publication US20120225909A1, “INDAZOLE ANALOG” (priority 2009, published 2012).
